24 compounds from publication PMC4466525, “Design, Synthesis and Structure-Activity Relationship Studies of Novel Survivin Inhibitors with Potent Anti-Proliferative Properties” (PLoS ONE, 2015) can be followed below.

One test deals with A375. Description: Cell viability (MTS) anti-proliferative assay, A375. The conditions noted are these: A-375, A375 human melanoma, 48 h treatment, n = 4, read-out: IC50 values ± SEM, A375. Type of test: cell-based. How it is done: (§1) The anti-proliferative effect of UC-112 and its analogs were tested in human melanoma (A375, M14 and M14/LCC6MDR1) and human prostate cancer (PC-3) cell lines. All the cell lines were purchased from ATCC (American Type Culture Collection, Manassas, VA). The cancer cells were cultured using the supplemented cell culture medium as described before at 37°C in a humidified atmosphere containing 5% CO2. 5000 cells in logarithm growing phase were seeded overnight into each well of a 96-well plate. Then the cells were continuously incubated with sequential diluted compound solution (10 nM to 100 μM, 100 μl per well) in cell culture medium.

The test system of a further test is M14. Description: Cell viability (MTS) anti-proliferative assay, M14. The class given is cell-based. The conditions noted are these: M14 human melanoma, 48 h treatment, n = 4, read-out: IC50 values ± SEM, M14. How it is done:
as §1

In a further test the test system is M14/LCC6MDR1. Description: Cell viability (MTS) anti-proliferative assay, multidrug-resistant M14/LCC6MDR1. The class given is cell-based, human. The following applies: for IC50: multidrug-resistant M14/LCC6MDR1 melanoma, 48 h treatment, MTS, n = 4, read-out: IC50 values ± SEM, M14/LCC6MDR1; for Resistance Index: IC50 on M14/LCC6MDR1 divided by IC50 on parental M14. How it is done:
as §1

The test system of another test is PC-3. Description: Cell viability (MTS) anti-proliferative assay, PC-3. The class given is cell-based. The following applies: PC-3 human prostate cancer, 48 h treatment, n = 4, read-out: IC50 values ± SEM, PC-3. How it is done: as §1
The subject of a further test is NCI-60 cell lines. Description: NCI-60 cell line screening (SRB), whole panel. The conditions noted are these: for Activity in NCI-60 one-concentration screening: 10 μM. The class given is cell-based, human. How it is done: Four compounds including the parental compound UC-112 were submitted to National Cancer Institute for its NCI-60 cell line screening, initially tested at one concentration (10 μM), and subsequently selected for full five concentration testing following the standard protocols disclosed by NCI [34]. In brief, cells were plated into 96 well micro-titer plates 24 h prior to the treatment of compound solution for 48 h, then the cell viability was read out through absorbance of sulforhodamine B (SRB) staining.

Another test relates to caspase 3/7. Description: Caspase 3/7 functional assay (Caspase-Glo 3/7). The following applies: 1 μM, 24 h, A375 or PC-3 cells, N = 3. The class given is cell-based, human. The method, then:
The caspase 3/7 activity of cancer cells treated by DMSO control or compound of interest was analyzed using Glo Caspase-Glo 3/7 kit from Promega Corporation (Madison, WI) as per manufacturer’s instructions in similar protocol as described before. The readings of relative luminescence unit were normalized by the cell viability read from the same well determined by compatible CytoTox-Fluor Cytotoxicity assay kit (Promega, WI).

Where two headings read alike, the source gives them in different places. Where only a bound is given, the exact number is not on record here.

For the compound `Oc1c(CN2CCCC2)cc(COCc2ccc(F)cc2)c2cccnc12` [4a, 5-(((4-fluorobenzyl)oxy)methyl)-7-(pyrrolidin-1-ylmethyl)quinolin-8-ol], the IC50 came to 1500 ± 200 nM in the test with A375; 1800 ± 300 nM in the test with M14; 4400 ± 700 nM in the test with M14/LCC6MDR1 (Homo sapiens, 48 h); 700 ± 200 nM in the test on PC-3. In addition, in the test with M14/LCC6MDR1, the “Resistance Index” value came out at 2.4.
For `Oc1c(CN2CCCC2)cc(COCc2ccc(Cl)cc2)c2cccnc12` [4b, 5-(((4-chlorobenzyl)oxy)methyl)-7-(pyrrolidin-1-ylmethyl)quinolin-8-ol] the same measures were 1500 ± 300 nM, 1100 ± 100 nM, 2400 ± 500 nM, 900 ± 100 nM and 2.2.
On to `Oc1c(CN2CCCC2)cc(COCc2ccc(Br)cc2)c2cccnc12` [4c, 5-(((4-bromobenzyl)oxy)methyl)-7-(pyrrolidin-1-ylmethyl)quinolin-8-ol], for which the IC50 in the test on A375 is 900 ± 200 nM; with M14, 1000 ± 200 nM; with M14/LCC6MDR1 (Homo sapiens, 48 h), 1800 ± 600 nM; in the test on PC-3 it was 700 ± 300 nM. Moreover, the “Resistance Index” value with M14/LCC6MDR1 came out at 1.8. Further, the “Activity in NCI-60 one-concentration screening” value with NCI-60 cell lines is “good activity”. The “Caspase 3/7 activation relative to DMSO control group” value in the test on caspase 3/7 is recorded as “up to 4 folds”.
With `Oc1c(CN2CCCC2)cc(COCc2ccc(C(F)(F)F)cc2)c2cccnc12` [4d, 7-(pyrrolidin-1-ylmethyl)-5-(((4-(trifluoromethyl)benzyl)oxy)methyl)quinolin-8-ol], the IC50 with A375 was 900 ± 300 nM; in the test on M14 it was 1000 ± 400 nM; in the test with M14/LCC6MDR1 (Homo sapiens, 48 h), 1900 ± 500 nM; in the test on PC-3 it was 1000 ± 100 nM. The “Resistance Index” value in the test with M14/LCC6MDR1 was determined as 1.9.
For the compound `Cc1ccc(COCc2cc(CN3CCCC3)c(O)c3ncccc23)cc1` [4e, 5-(((4-methylbenzyl)oxy)methyl)-7-(pyrrolidin-1-ylmethyl)quinolin-8-ol], the IC50 with A375 came to 1700 ± 300 nM; in the test on M14, 2300 ± 500 nM; with M14/LCC6MDR1 (Homo sapiens, 48 h) it was 4100 ± 2000 nM; with PC-3 it was 1100 ± 200 nM. The “Resistance Index” value in the test on M14/LCC6MDR1 is recorded as 1.8.
On to `CC(C)(C)c1ccc(COCc2cc(CN3CCCC3)c(O)c3ncccc23)cc1` [4h, 5-(((4-(tert-butyl)benzyl)oxy)methyl)-7-(pyrrolidin-1-ylmethyl)quinolin-8-ol], for which the IC50 in the test on A375 was 1100 ± 400 nM; in the test with M14/LCC6MDR1 (Homo sapiens, 48 h), 1500 ± 700 nM; in the test with PC-3, 1500 ± 300 nM.
Consider `COc1ccc(COCc2cc(CN3CCCC3)c(O)c3ncccc23)cc1` [4i, 5-(((4-methoxybenzyl)oxy)methyl)-7-(pyrrolidin-1-ylmethyl)quinolin-8-ol], for which the IC50 with A375 stood at 1800 ± 200 nM; in the test on M14 it was 1500 ± 400 nM; in the test with M14/LCC6MDR1 (Homo sapiens, 48 h), 3800 ± 600 nM; in the test on PC-3 it was 1000 ± 400 nM. Also, the “Resistance Index” value with M14/LCC6MDR1 was found to be 2.5.
In the case of `Oc1c(CN2CCCC2)cc(COCc2ccc(OCc3ccccc3)cc2)c2cccnc12` [4j, 5-(((4-(benzyloxy)benzyl)oxy)methyl)-7-(pyrrolidin-1-ylmethyl)quinolin-8-ol], the IC50 was 2800 ± 100 nM in the test on A375 and 12100 ± 500 nM with M14/LCC6MDR1 (Homo sapiens, 48 h).
For `CC(=O)Nc1ccc(COCc2cc(CN3CCCC3)c(O)c3ncccc23)cc1` [4k, N-(4-(((8-hydroxy-7-(pyrrolidin-1-ylmethyl)quinolin-5-yl)methoxy)methyl)phenyl)acetamide], the IC50 in the test with A375 is 4700 ± 800 nM; in the test with M14/LCC6MDR1 (Homo sapiens, 48 h), 5500 ± 1300 nM.
Regarding `COc1cc(COCc2cc(CN3CCCC3)c(O)c3ncccc23)cc(OC)c1OC` [4l, 7-(pyrrolidin-1-ylmethyl)-5-(((3,4,5-trimethoxybenzyl)oxy)methyl)quinolin-8-ol], the IC50 is 2800 ± 400 nM in the test on A375; 3600 ± 1000 nM in the test with M14; > 30000 nM in the test with M14/LCC6MDR1 (Homo sapiens, 48 h); 1600 ± 300 nM in the test with PC-3. For the same compound, the “Resistance Index” value in the test with M14/LCC6MDR1 is recorded as > 8.3.
For `Oc1c(CN2CCCC2)cc(COCc2ccco2)c2cccnc12` [6a, 5-((furan-2-ylmethoxy)methyl)-7-(pyrrolidin-1-ylmethyl)quinolin-8-ol], the IC50 is 2700 ± 300 nM with A375; 3100 ± 300 nM in the test with M14; 15300 ± 3100 nM in the test on M14/LCC6MDR1 (Homo sapiens, 48 h); 27500 ± 2000 nM in the test on PC-3. Also, in the test with M14/LCC6MDR1, the “Resistance Index” value came out at 4.9.
As to `Oc1c(CN2CCCC2)cc(COCc2cccs2)c2cccnc12` [6b, 7-(pyrrolidin-1-ylmethyl)-5-((thiophen-2-ylmethoxy)methyl)quinolin-8-ol], the IC50 is 2500 ± 500 nM with A375; 1900 ± 900 nM with M14; 4200 ± 200 nM in the test with M14/LCC6MDR1 (Homo sapiens, 48 h); 3400 ± 700 nM in the test with PC-3. In addition, the “Resistance Index” value with M14/LCC6MDR1 was 2.2.
Regarding `Oc1c(CN2CCCC2)cc(COCc2ccccn2)c2cccnc12` [6c, 5-((pyridin-2-ylmethoxy)methyl)-7-(pyrrolidin-1-ylmethyl)quinolin-8-ol], the IC50 was 8400 ± 1500 nM in the test with A375; 8000 ± 2200 nM in the test on M14; > 30000 nM in the test with M14/LCC6MDR1 (Homo sapiens, 48 h); > 30000 nM with PC-3. Besides, in the test on M14/LCC6MDR1, the “Resistance Index” value is >3.8.
Consider `Oc1c(CN2CCCC2)cc(COCC2CCCCC2)c2cccnc12` [6d, 5-((cyclohexylmethoxy)methyl)-7-(pyrrolidin-1-ylmethyl)quinolin-8-ol], for which the IC50 stood at 1000 ± 100 nM in the test on A375 and 1300 ± 600 nM in the test on M14.
As to `CCOCc1cc(CN2CCCC2)c(O)c2ncccc12` [6e, 5-(ethoxymethyl)-7-(pyrrolidin-1-ylmethyl)quinolin-8-ol], the IC50 with A375 is 6100 ± 700 nM; in the test on M14 it was 5100 ± 2100 nM.
For `CCCOCc1cc(CN2CCCC2)c(O)c2ncccc12` [6f, 5-(propoxymethyl)-7-(pyrrolidin-1-ylmethyl)quinolin-8-ol] the same measures were 5000 ± 300 nM and 5900 ± 1200 nM.
As for `CCCCOCc1cc(CN2CCCC2)c(O)c2ncccc12` [6g, 5-(butoxymethyl)-7-(pyrrolidin-1-ylmethyl)quinolin-8-ol], the IC50 in the test on A375 was 3000 ± 500 nM; with M14 it was 4900 ± 1300 nM.
Regarding `Oc1c(CN2CCCCC2)cc(COCc2ccccc2)c2cccnc12` [8a, 5-((benzyloxy)methyl)-7-(piperidin-1-ylmethyl)quinolin-8-ol], the IC50 stood at 1100 ± 100 nM in the test with A375; 1300 ± 200 nM with M14; 2100 ± 600 nM in the test with M14/LCC6MDR1 (Homo sapiens, 48 h); 1300 ± 300 nM in the test with PC-3. Moreover, the “Resistance Index” value with M14/LCC6MDR1 came out at 1.6.
Regarding `Oc1c(CN2CCOCC2)cc(COCc2ccccc2)c2cccnc12` [8b, 5-((benzyloxy)methyl)-7-(morpholinomethyl)quinolin-8-ol], the IC50 worked out at 5000 ± 1600 nM in the test on A375; 4800 ± 500 nM in the test with M14; 3500 ± 1000 nM in the test with M14/LCC6MDR1 (Homo sapiens, 48 h). The “Resistance Index” value in the test with M14/LCC6MDR1 was 0.7.
`Oc1c(CN2CCCC2)cc(COCCc2ccccc2)c2cccnc12` [10a, 5-(phenethoxymethyl)-7-(pyrrolidin-1-ylmethyl)quinolin-8-ol]: the IC50 is 2800 ± 900 nM in the test on A375; 2900 ± 200 nM in the test on M14; 15000 to 20000 nM in the test with M14/LCC6MDR1 (Homo sapiens, 48 h); 15000 ± 2500 nM with M14/LCC6MDR1. Further, the “Resistance Index” value in the test on M14/LCC6MDR1 stood at 5.2.
Regarding `Oc1c(CN2CCCC2)cc(COCCCc2ccccc2)c2cccnc12` [10b, 5-((3-phenylpropoxy)methyl)-7-(pyrrolidin-1-ylmethyl)quinolin-8-ol], the IC50 with A375 was 2400 ± 700 nM; with M14 it was 2300 ± 800 nM; with M14/LCC6MDR1 (Homo sapiens, 48 h) it was 15000 to 20000 nM; in the test on M14/LCC6MDR1, 20000 ± 1600 nM. For the same compound, the “Resistance Index” value in the test on M14/LCC6MDR1 worked out at 8.7.
Take `CN(Cc1ccccc1)Cc1cc(CN2CCCC2)c(O)c2ncccc12` [12b, 5-((benzyl(methyl)amino)methyl)-7-(pyrrolidin-1-ylmethyl)quinolin-8-ol]: the IC50 in the test with A375 stood at 7100 ± 700 nM; in the test on M14 it was 6200 ± 1400 nM; in the test with M14/LCC6MDR1 (Homo sapiens, 48 h), 8000 ± 1000 nM; in the test with PC-3 it was 2500 ± 600 nM. The “Resistance Index” value with M14/LCC6MDR1 is given as 1.3.
As to `Oc1c(CN2CCCC2)cc(COCc2ccccc2)c2cccnc12` [UC-112, 5-((benzyloxy)methyl)-7-(pyrrolidin-1-ylmethyl)quinolin-8-ol, reference compound], the IC50 stood at 1900 ± 600 nM in the test on A375; 2100 ± 300 nM in the test with M14; 3200 ± 500 nM with M14/LCC6MDR1 (Homo sapiens, 48 h); 1600 ± 1000 nM in the test on PC-3. The “Resistance Index” value with M14/LCC6MDR1 is listed as 1.5. Moreover, the GI50 with NCI-60 cell lines (Homo sapiens, five dose testing, 48 h, SRB, read-out: Average GI50 over all cancer cell lines in the NCI-60 panel) came out at 2200 nM. Besides, the “Activity in NCI-60 one-concentration screening” value in the test on NCI-60 cell lines is on record as “good activity”.
In the case of `COCCn1c2c([n+](Cc3cnccn3)c1C)C(=O)c1ccccc1C2=O` [YM-155, reference compound], the IC50 is 3 nM in the test on M14 and > 10000 nM in the test with M14/LCC6MDR1 (Homo sapiens, 48 h). For the same compound, in the test on M14/LCC6MDR1, the “Resistance Index” value was “higher than 2941”.

By GI50 is commonly meant the concentration giving 50% growth inhibition.
